Values of other authors, collected in paper PMC3575012 (Scientific Reports, 2013).

Assays:
[1] = system: amyloid precursor protein; conditions: stated as known, explained by buried free N-terminus of Aβ; ref not given
Alzheimer's disease = conditions: cohort of patients suffering “mild” AD; ref not given

binding preference (plaque deposited Aβ) | Substance | cross reactivity with the amyloid precursor protein [1] | cognitive improvement (Alzheimer's disease)
Preferential binding | Bapineuzumab | lack of cross reactivity | –
– | Solanezumab | – | small but significant cognitive improvement
